Measurements as given in patent US20110021429A1, “Renoprotection by growth hormone-releasing hormone and agonists” (priority 2007, published 2011).
No end group written: not given here.

Assays:
GHRH-R = biological target: T1, GHRH-R (Rattus norvegicus, UniProt Q02644); experiment: GHRH-induced intracellular cAMP production in freshly dispersed semi-purified thin limb cells (EIA); type: cell-based
T1 construct: endogenous in cells; host or cells: freshly dispersed semi-purified thin limb cells of Henle's loop from the renal medulla of 2-month-old male Sprague Dawley rats
T1 sequence (Q02644 53-423 isoform Q02644-2): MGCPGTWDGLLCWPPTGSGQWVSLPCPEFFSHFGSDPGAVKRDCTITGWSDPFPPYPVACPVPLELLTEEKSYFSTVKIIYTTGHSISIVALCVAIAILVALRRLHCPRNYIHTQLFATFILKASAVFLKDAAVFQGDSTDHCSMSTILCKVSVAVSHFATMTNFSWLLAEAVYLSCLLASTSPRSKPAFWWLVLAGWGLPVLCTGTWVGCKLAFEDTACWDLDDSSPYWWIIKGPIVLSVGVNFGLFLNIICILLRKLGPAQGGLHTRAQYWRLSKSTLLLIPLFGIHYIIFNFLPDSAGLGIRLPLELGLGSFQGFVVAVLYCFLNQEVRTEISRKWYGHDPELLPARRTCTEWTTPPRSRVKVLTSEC
Protocol: Cell dispersion of minced medullas to obtain semi-purified thin limb cells was performed as previously described.^33 These cells were used immediately for in vitro determination of basal and rGHRH(1-29)NH2-induced cAMP levels or purified by differential centrifugation for immunocytochemistry, using a continuous gradient of Nycodenz. The gradient was prepared as described by Grupp et al.^55 and thin limb cells were recovered in fraction I of the gradient after centrifugation at 1500 g (16° C., 45 min) and washed twice in HEPES-Ringer buffer (430 g, 16° C., 10 min). Cell viability, assessed by the Trypan Blue exclusion method, was around 95%. When purified thin limb cells were cultured, isolation and purification steps were performed under sterile conditions and media containing antibiotics.
Sensitivity to GHRH was assessed in freshly semi-purified thin limb cells^33 from rats fed a 8%-NaCl diet for 2, 7 or 14 days or the control diet. […] Supernatants were used to quantify immunoreactive cAMP levels (non-acetylated method). Pellets were kept frozen for determination of protein content.^59 Optical densities were measured at 450 nm, using a microplate reader (Bio-Rad, model 3550). […]

[1] = test system: thin limbs of Henle's loop cells; experiment: In vivo BrdU immunolabeling (DNA repair/synthesis) in purified thin limb cells; parameters: species or system rat; conditions: 1 mg/kg BW sc/day, 2 days, 8%-NaCl chow
Protocol: (§1) Two-month-old male Sprague Dawley rats (Charles River Canada, St-Constant, QC) were kept in temperature- (22° C.), humidity- (65%) and lighting- (12h cycles; lights on at 0700 h) controlled rooms and had free access to standard rat chow (2018 Tecklad global 18% protein rodent diet, containing 0.23% Na^+ and 0.4% Cl^−; Harlan Tecklad, Madison, Wis.) and tap water. Rats were acclimatized ≈3 days before going on a high-NaCl diet or water deprivation. Rats fed the custom-made high-NaCl diet for 2, 7 or 14 (8% NaCl; Harlan Tecklad) were compared to rats fed the custom-made control diet (0.3% NaCl; Harlan Tecklad). They had free access to water. […] Rats used in the first series of experiments, to quantify GHRH-R mRNA levels following a 8%-NaCl diet or a water deprivation, were housed individually in metabolic cages for the entire duration of intervention. Body weight (BW), food and water intakes, and urine volume were recorded daily, and Na^+ levels were analyzed on the last 24h urine sample before sacrifice. Rats used in the 8%-NaCl diet/GHRH study were housed individually in plastic cages and BW and food intake were recorded daily. […]
BrdU immunolabeling (Roche Diagnostics, Laval, QC, CA) was used to quantify DNA repair/synthesis in purified thin limb cells from rat submitted 2 days to a 8%- or 0.3%-NaCl diet and injected with GHRH or saline. […]

GHRH-R mRNA [2] = experiment: Renal medulla GHRH-R mRNA levels after in vivo GHRH in high-NaCl fed rats; parameters: species or system rat; conditions: high-NaCl fed rats injected with GHRH, 1 mg/kg BW sc/day, 2 days
Protocol: as §1
Total RNA from medullas and purified descending and ascending thin limb cells was extracted with TRIzol (Invitrogen Canada, Burlington, ON). […] Tissue GHRH-R and GAPDH mRNA and cRNA external standard levels were quantified by densitometry. […]

[3] = Serum total IGF-1 levels after in vivo GHRH; parameters: species or system rat; conditions: high-NaCl fed rats injected with GHRH, 1 mg/kg BW sc/day, 2 days
Protocol: (§2) Two-month-old male Sprague Dawley rats (Charles River Canada, St-Constant, QC) were kept in temperature- (22° C.), humidity- (65%) and lighting- (12h cycles; lights on at 0700 h) controlled rooms and had free access to standard rat chow (2018 Tecklad global 18% protein rodent diet, containing 0.23% Na^+ and 0.4% Cl^−; Harlan Tecklad, Madison, Wis.) and tap water. Rats were acclimatized ≈3 days before going on a high-NaCl diet or water deprivation. Rats fed the custom-made high-NaCl diet for 2, 7 or 14 (8% NaCl; Harlan Tecklad) were compared to rats fed the custom-made control diet (0.3% NaCl; Harlan Tecklad). They had free access to water. Rats deprived of water for 3 or 5 days had free access to 2018 Tecklad rat chow. Rats used in the first series of experiments, to quantify GHRH-R mRNA levels following a 8%-NaCl diet or a water deprivation, were housed individually in metabolic cages for the entire duration of intervention. Body weight (BW), food and water intakes, and urine volume were recorded daily, and Na^+ levels were analyzed on the last 24h urine sample before sacrifice. Rats used in the 8%-NaCl diet/GHRH study were housed individually in plastic cages and BW and food intake were recorded daily. Rats were sacrificed in a block-design fashion between 0900-1130 h, by rapid decapitation. […]

GHRH-R mRNA [4] = experiment: GHRH-R mRNA levels by real-time RT-PCR in purified thin limb cells after in vivo sc GHRH; parameters: species or system rat; conditions: 2 days; for GHRH-R mRNA levels: 1 mg/kg BW/day sc
Protocol: as §2, with “decapitation. Pituitaries, kidneys and livers were excised immediately and anterior pituitaries and renal medullas dissected out. Tissues were snap-frozen in liquid nitrogen and stored at −80° C. until RNA extraction.” for “decapitation.”
Total RNA from purified thin limb cells was extracted with TRIzol. […] Reverse transcription of 2 μg total RNA was performed using the SuperScript™ II RT kit (Invitrogen) and random hexamer primers, according to the manufacturer's protocol, including RNAse H treatement. mRNA levels of rat GHRH-R and rat GAPDH (internal control) were determined in separate tubes, by real-time PCR, using a 1/150 (GHRH-R) and 1/300 (GAPDH) dilution of the RT product and the reagents from the Quantitect™ SYBR® Green PCR kit (Qiagen, Mississauga, ON, CA), according to the manufacturer's recommendation. […]

CIC-K1 mRNA = CIC-K1 mRNA levels by real-time RT-PCR in purified thin limb cells after in vivo sc GHRH; parameters: species or system rat; conditions: 1 mg/kg BW/day sc, 2 days
[5] = test system: anterior pituitary GHRH-R mRNA; experiment: Anterior pituitary GHRH-R mRNA levels after in vivo GHRH; parameters: species or system rat; conditions: 2-day in vivo GHRH
Protocol: as §1
Total RNA was extracted as above. […] Membranes were subsequently washed, exposed to films, stripped and rehybridized with GAPDH 28S probes.^33 Quantification of each GHRH-R mRNA transcript (2.5 and 4 kb), GAPDH mRNA and 28S rRNA levels was performed by densitometry. […]

[6] = Body weight and food intake of rats on 8%-NaCl diet injected with GHRH; type: in vivo, rat; conditions: 2-day 8%-NaCl diet, injected with GHRH or saline
Protocol: as §2

[7] = 14-day sc administration, cited from earlier work

rGHRH(1-29)NH2 (HADAIFTSSYRRILGQLYARKLLHEIMNR-NH2) [rat growth hormone-releasing hormone fragment 1-29 amide, synthesized in the applicant's laboratory]
decrease of GHRH-induced cAMP production (GHRH-R; 1 nM and 100 nM, cells from rats fed 2 days 8%-NaCl chow vs control diet): 1.5 fold | loss of sensitivity to GHRH (cAMP production) (GHRH-R; cells from rats fed the high-salt diet for 7 or 14 days): reverted | increase in intensity of mitochondrial BrdU immunofluorescence [1]: ≈ 7 times | increase in the number of ascending thin limb cell nuclei and mitochondria immunolabeled to BrdU ([1]; vs control groups): 5 times | GHRH-R mRNA levels in the renal medulla (GHRH-R mRNA [2]): tended to increase | serum total insulin-like growth factor-1 (IGF-1) levels [3]: not modified | regulation of renal GHRH-R mRNA levels in thin limb cells (GHRH-R mRNA [4]; 0.5 mg/kg BW/day sc, healthy rats, P<0.01): up-regulate | GHRH-R mRNA levels (GHRH-R mRNA [4]; 5 other rats): decreased | GHRH-R mRNA levels (GHRH-R mRNA [4]; subgroup of 3 rats): significantly increased | CIC-K1 mRNA levels (CIC-K1 mRNA; 5 other rats): without significantly altering | CICK-1 mRNA levels (CIC-K1 mRNA; subgroup of 3 rats): significantly increased | anterior pituitary GHRH-R mRNA levels [5]: No significant regulatory effect | body weight (BW) [6]: No change | food intake [6]: No change | IGF-I serum levels significantly decreased ([7]; 0.5 mg/kg BW/day): not | IGF-I serum levels ([7]; 1 mg/kg BW/day): significantly decreased
